One test concerns SMN2 mRNA. The test can be described thus: RT-qPCR splicing assay, SMN2 mRNA. Type of test: cell-based, human. The conditions noted are these: Homo sapiens, canonical junction qPCR panel, Table 4; read-out: SMN2 IC50 (decrease in CJ mRNA levels). A digest of the protocol:
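A673 or K562 cells treated 24 h at 37 °C with an 11-point 3-fold dilution series (top 10 uM, DMSO ≤0.25%). Lysates went directly to one-step RT-qPCR quantifying canonical (CJ) and alternative-exon (AJ) junctions, normalized to GAPDH, GUSB or PPIA. Values from ΔΔCt versus DMSO, RQ = 2^(−ΔΔCt), expressed as percentage response.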
(In general: In qPCR the cycle at which signal appears reflects the starting amount.)

The subject of another test is MYB. The experiment in a line: HiBiT protein abundance assay, MYB (K562 HiBiT knock-in). Type of test: cell-based, human. The conditions noted are these: HiBiT knock-in K562 cells, 24 hours, top dose 10 μM. A digest of the protocol:
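K562 HiBiT knock-in, 24 h, 37 °C, top 10 μM final, 3-fold ×10, DMSO ≤0.25%. Lytic HiBiT luminescence; PC = parental K562, NC = DMSO; 4PL IC50.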

The source of these data is patent US20250092065A1, “2-(INDAZOL-5-YL)-6-(PIPERIDIN-4-YL)-1,7-NAPHTHYRIDINE DERIVATIVES AND RELATED COMPOUNDS AS MODULATORS FOR SPLICING NUCLEIC ACIDS AND FOR THE TREATMENT OF PROLIFERATIVE DISEASES” (REMIX THERAPEUTICS INC., priority 2022, published 2025).

With `Cc1nc2c(C)c(O)c(-c3ccc4nc(N5CC[C@@H](NC6(C)CC6)C5)ccc4n3)cc2o1` (single isomer, unassigned) [Compound 310], the half-maximal inhibitory concentration (IC50) with SMN2 mRNA and with MYB was under 0.1 µM each time.
Turning to `Cc1nc2c(C)c(O)c(-c3ccc4nc(N5CC[C@H](NC6(C)CC6)C5)ccc4n3)cc2o1` (single isomer, unassigned) [Compound 311], the IC50 with SMN2 mRNA is under 0.1 µM; with MYB, 0.1 to 1 µM.
Regarding `Cc1nc2c(C)c(O)c(-c3ccc4nc(N5CC[C@@H](NC(C)C)C5)ccc4n3)cc2o1` (single isomer, unassigned) [Compound 313], the IC50 in the test on SMN2 mRNA and with MYB was under 0.1 µM in each case.
In the case of `Cc1nc2c(C)c(O)c(-c3ccc4nc(N5CC[C@H](NC(C)C)C5)ccc4n3)cc2o1` (single isomer, unassigned) [Compound 314], the IC50 in the test with SMN2 mRNA and with MYB was under 0.1 µM throughout.
On to `Cn1cc2cc(-c3ccc4nc(N5CC[C@@H](NC6CCC6)C5)ccc4n3)c(O)c(F)c2n1` (single isomer, unassigned) [Compound 316], for which the IC50 in the test on SMN2 mRNA and with MYB was under 0.1 µM throughout.
Consider `Cn1cc2cc(-c3ccc4nc(N5CC[C@H](NC6CCC6)C5)ccc4n3)c(O)c(F)c2n1` (single isomer, unassigned) [Compound 317], for which the IC50 in the test on SMN2 mRNA and in the test with MYB was under 0.1 µM in each case.
With `Cc1c(O)c(-c2ccc3nc(N4CC[C@@H](NC(C)C)C4)ccc3n2)cc2cn(C)nc12` (single isomer, unassigned) [Compound 319], the half-inhibitory concentration (IC50) in the test with SMN2 mRNA and in the test with MYB was under 0.1 µM each time.
In the case of `Cc1c(O)c(-c2ccc3nc(N4CC[C@H](NCC5CC5)C4)ccc3n2)cc2cn(C)nc12` (single isomer, unassigned) [Compound 321], the IC50 in the test with SMN2 mRNA and with MYB was under 0.1 µM each time.
`Cc1c(O)c(-c2ccc3nc(N4CC[C@@H](NCC5CC5)C4)ccc3n2)cc2cn(C)nc12` (single isomer, unassigned) [Compound 322]: the IC50 in the test with SMN2 mRNA and in the test on MYB was under 0.1 µM each time.
Regarding `Cc1nc2c(F)c(O)c(-c3ccc4nc(N5CC[C@@H](NCC6CC6)C5)ccc4n3)cc2o1` (single isomer, unassigned) [Compound 323], the IC50 in the test with SMN2 mRNA and in the test with MYB was under 0.1 µM in each case.
In the case of `Cc1nc2c(F)c(O)c(-c3ccc4nc(N5CC[C@H](NCC6CC6)C5)ccc4n3)cc2o1` (single isomer, unassigned) [Compound 324], the IC50 in the test on SMN2 mRNA and in the test on MYB was under 0.1 µM throughout.
Consider `Cc1nc2c(F)c(O)c(-c3ccc4nc(N5CC[C@@H](NC(C)C)C5)ccc4n3)cc2o1` (single isomer, unassigned) [Compound 329], for which the IC50 in the test on SMN2 mRNA and in the test with MYB was under 0.1 µM each time.
Regarding `Cc1nc2c(F)c(O)c(-c3ccc4nc(N5CC[C@H](NC(C)C)C5)ccc4n3)cc2o1` (single isomer, unassigned) [Compound 330], the IC50 with SMN2 mRNA and in the test on MYB was under 0.1 µM in each case.
`Cn1cc2cc(-c3ccc4nc(N5CC[C@H](N[C@H]6C[C@H](F)C6)C5)ccc4n3)c(O)c(F)c2n1` (single isomer, unassigned) [Compound 347]: the 50% inhibitory concentration (IC50) in the test on SMN2 mRNA and in the test on MYB was under 0.1 µM in each case.
In the case of `Cc1nc2cc(O)c(-c3ccc4nc(N5CC[C@@H](N[C@H]6C[C@H](F)C6)C5)ccc4n3)cc2o1` (single isomer, unassigned) [Compound 348], the IC50 in the test with SMN2 mRNA and in the test with MYB was under 0.1 µM throughout.
Consider `Cn1cc2cc(-c3ccc4nc(N5CC[C@@H](N[C@H]6C[C@H](F)C6)C5)ccc4n3)c(O)c(F)c2n1` (single isomer, unassigned) [Compound 349], for which the IC50 in the test with SMN2 mRNA and in the test with MYB was under 0.1 µM throughout.
Turning to `Cc1nc2c(C)c(O)c(-c3ccc4nc(N5CC[C@H](N[C@H]6C[C@H](F)C6)C5)ccc4n3)cc2o1` (single isomer, unassigned) [Compound 351], the IC50 with SMN2 mRNA and with MYB was under 0.1 µM in each case.
Regarding `Cc1nc2c(C)c(O)c(-c3ccc4nc(N5CC[C@@H](N[C@H]6C[C@H](F)C6)C5)ccc4n3)cc2o1` (single isomer, unassigned) [Compound 352], the IC50 with SMN2 mRNA and with MYB was under 0.1 µM throughout.
Regarding `Cc1nc2c(F)c(O)c(-c3ccc4nc(N5CC[C@@H](NC6(C)CC6)C5)ccc4n3)cc2o1` (stereo in doubt) [Compound 326, 4-fluoro-2-methyl-6-{6-[(3 S)-3-[(1-methylcyclopropyl)amino]pyrrolidin-1-yl]-1,5-naphthyridin-2-yl}-1,3-benzoxazol-5-ol], the IC50 in the test on SMN2 mRNA and in the test with MYB was under 0.1 µM in each case.
With `Cc1nc2c(F)c(O)c(-c3ccc4nc(N5CCC(NC6(C)CC6)C5)ccc4n3)cc2o1` (stereo in doubt) [Compound 327, 4-fluoro-2-methyl-6-{6-[(3R)-3-[(1-methylcyclopropyl)amino]pyrrolidin-1-yl]-1,5-naphthyridin-2-yl}-1,3-benzoxazol-5-ol], the IC50 with SMN2 mRNA and with MYB was under 0.1 µM in each case.
Regarding `Cc1nc2c(C)c(O)c(-c3ccc4nc(N5CC[C@H](NC(C)(C)C)C5)ccc4n3)cc2o1` [Compound 214], the IC50 in the test with SMN2 mRNA and in the test with MYB was under 0.1 µM each time.
As for `Cc1nc2c(C)c(O)c(-c3ccc4nc(N5CC[C@H](NC6CC6)C5)ccc4n3)cc2o1` [Compound 216], the IC50 with SMN2 mRNA and in the test on MYB was under 0.1 µM each time.
Regarding `Cc1nc2c(C)c(O)c(-c3ccc4nc(N5CC[C@@H](NC6CC6)C5)ccc4n3)cc2o1` [Compound 217], the 50% inhibitory concentration (IC50) in the test on SMN2 mRNA and in the test on MYB was under 0.1 µM each time.
Turning to `Cn1cc2cc(-c3ccc4nc(N5CCC(NC6(C)CC6)C5)ccc4n3)c(O)cc2n1` (centres unmarked) [Compound 219], the IC50 in the test on SMN2 mRNA and in the test on MYB was under 0.1 µM each time.
Turning to `Cc1nc2cc(O)c(-c3ccc4nc(N5CC[C@@H](NC6CCC6)C5)ccc4n3)cc2o1` [Compound 229], the IC50 in the test on SMN2 mRNA and in the test with MYB was under 0.1 µM in each case.
On to `Cc1nc2cc(O)c(-c3ccc4nc(N5CC[C@H](NC6CCC6)C5)ccc4n3)cc2o1` [Compound 230], for which the figures for the IC50 with SMN2 mRNA and in the test with MYB were under 0.1 µM and 0.1 to 1 µM, respectively.
For `Cc1nc2cc(O)c(-c3ccc4nc(N5CCC(NC(C)C)C5)ccc4n3)cc2o1` (centres unmarked) [Compound 231], in that order: under 0.1 µM and under 0.1 µM.
For `Cc1nc2c(C)c(O)c(-c3ccc4nc(N5CCC(NC6CCC6)C5)ccc4n3)cc2o1` (centres unmarked) [Compound 235] the same measures were under 0.1 µM and under 0.1 µM.
For `Cc1nc2c(C)c(O)c(-c3ccc4nc(N5CC[C@@H](NC6CCC6)C5)ccc4n3)cc2o1` [Compound 236] the same measures were under 0.1 µM and under 0.1 µM.
For the molecule `Cc1nc2c(C)c(O)c(-c3ccc4nc(N5CC[C@H](NC6CCC6)C5)ccc4n3)cc2o1` [Compound 237], the 50% inhibitory concentration (IC50) in the test on SMN2 mRNA and in the test on MYB was under 0.1 µM throughout.
For the molecule `Cc1cc(-c2ccc3nc(N4CCC(NC(C)(C)C)C4)ccc3n2)nc2cn(C)nc12` (centres unmarked) [Compound 248], the figures for the IC50 in the test on SMN2 mRNA and with MYB were 0.1 to 1 µM and 1 to 10 µM, respectively.
For `Cc1c(O)c(-c2ccc3nc(N4CC[C@@H](NC(C)(C)C)C4)ccc3n2)cc2cn(C)nc12` [Compound 249], in that order: under 0.1 µM and under 0.1 µM.
Turning to `Cc1c(O)c(-c2ccc3nc(N4CC[C@H](NC(C)(C)C)C4)ccc3n2)cc2cn(C)nc12` [Compound 250], the IC50 with SMN2 mRNA and in the test on MYB was under 0.1 µM throughout.
`COc1c(-c2ccc3nc(N4CCC(NC(C)(C)C)C4)ccc3n2)cc2c[nH]nc2c1C` (centres unmarked) [Compound 251]: the IC50 in the test with SMN2 mRNA and with MYB was over 10 µM each time.
As for `Cc1cn2nc(-c3ccc4nc(N5CCC(NC6CC6)C5)ccc4n3)c(O)c2c(C)n1` (centres unmarked) [Compound 252], the IC50 was under 0.1 µM in the test on SMN2 mRNA and 0.1 to 1 µM in the test with MYB.
For `Cc1c(O)c(-c2ccc3nc(N4CCC(NCC5CC5)C4)ccc3n2)cc2cn(C)nc12` (centres unmarked) [Compound 284, 5-(6-{3-[(cyclopropylmethyl)amino]pyrrolidin-1-yl}-1,5-naphthyridin-2-yl)-2,7-dimethylindazol-6-ol], in that order: under 0.1 µM and under 0.1 µM.
Consider `Cc1c(O)c(-c2ccc3nc(N4CCC(NC5CCC5)C4)ccc3n2)cc2cn(C)nc12` (centres unmarked) [Compound 288, 5-{6-[3-(cyclobutylamino)pyrrolidin-1-yl]-1,5-naphthyridin-2-yl}-2,7-dimethylindazol-6-ol], for which the IC50 in the test with SMN2 mRNA and in the test with MYB was under 0.1 µM each time.
Consider `Cc1nc2c(F)c(O)c(-c3ccc4nc(N5CCC(NC6CCC6)C5)ccc4n3)cc2o1` (centres unmarked) [Compound 293, 6-{6-[3-(cyclobutylamino)pyrrolidin-1-yl]-1,5-naphthyridin-2-yl}-4-fluoro-2-methyl-1,3-benzoxazol-5-ol], for which the 50% inhibitory concentration (IC50) in the test with SMN2 mRNA and with MYB was under 0.1 µM throughout.
Regarding `Cn1cc2cc(-c3ccc4nc(N5CCC(NC67CC(C6)C7)C5)ccc4n3)c(O)cc2n1` (centres unmarked) [Compound 297, 5-[6-(3-{bicyclo[1.1.1]pentan-1-ylamino}pyrrolidin-1-yl)-1,5-naphthyridin-2-yl]-2-methylindazol-6-ol], the IC50 in the test with SMN2 mRNA lay in the range of 0.1 to 1 µM; with MYB it was 1 to 10 µM.
Turning to `Cn1cc2nc(-c3ccc4nc(N5CCC(NC(C)(C)C)C5)ccc4n3)c(O)cc2n1` (centres unmarked) [Compound 298, 5-{6-[3-(tert-butylamino)pyrrolidin-1-yl]-1,5-naphthyridin-2-yl}-2-methylpyrazolo[4,3-b]pyridin-6-ol], the half-maximal inhibitory concentration (IC50) with SMN2 mRNA and with MYB was under 0.1 µM each time.

What is called IC50 is the concentration that gives 50% inhibition.
